Reference: patent publication US6767897B2, “Therapeutic uses of tri-, tetra-, penta-, and polypeptides” (Innapharma, Inc., priority 1994, dated 2004)
Residues, ends and D or L forms follow the SMILES beside them.

How the values were obtained:
[1] = rat, in vivo, sc
[2] = system: animal models for depression; conditions: in vivo; cited from earlier work

Row | Compound | levels found in the hippocampus and the amygdala [1] | activity in animal models for depression [2]
1 | 4-F-Phe-cis- or trans-4-OH-Pro-Arg-Gly-Trp-NH2 [SEQ ID NO:43] | found at detectable levels and substantially unchaged in the hippocampus and the amygdala | –
2 | CC(C)C[C@H](NC(=O)[C@@H]1CCCN1)C(=O)NCC(N)=O [MIF, prolyl-leucyl-glycinamide] (H-Pro-Leu-Gly-NH2) | – | active in a number of animal models for depression
